Source: ChEMBL document CHEMBL2434896, “Carbonic anhydrase inhibitors. Synthesis of heterocyclic 4-substituted pyridine-3-sulfonamide derivatives and their inhibition of the human cytosolic isozymes I and II and transmembrane tumor-associated isozymes IX and XII” (Eur J Med Chem, 2013)
Active and inactive are the calls of the source.

Tests used:
Malme-3M = test: Growth inhibition of human MALME-3M cells at 10 uM after 48 hrs by sulforhodamine B assay; type: functional; conditions: read-out: GI
U-251 = test: Growth inhibition of human U251 cells at 10 uM after 48 hrs by sulforhodamine B assay; type: functional
SNB-75 = test: Growth inhibition of human SNB75 cells at 10 uM after 48 hrs by sulforhodamine B assay; type: functional
SNB-19 = test: Growth inhibition of human SNB19 cells at 10 uM after 48 hrs by sulforhodamine B assay; type: functional; conditions: SNB-19, 48 h, read-out: GI
SF-539 = test: Growth inhibition of human SF539 cells at 10 uM after 48 hrs by sulforhodamine B assay; type: functional
SF-295 = test: Growth inhibition of human SF295 cells at 10 uM after 48 hrs by sulforhodamine B assay; type: functional
KM12 = test: Growth inhibition of human KM12 cells at 10 uM after 48 hrs by sulforhodamine B assay; type: functional
SW-620 = test: Growth inhibition of human SW620 cells at 10 uM after 48 hrs by sulforhodamine B assay; type: functional
HT-29 = test: Growth inhibition of human HT-29 cells at 10 uM after 48 hrs by sulforhodamine B assay; type: functional
HCT-15 = test: Growth inhibition of human HCT15 cells at 10 uM after 48 hrs by sulforhodamine B assay; type: functional
HCT-116 = test: Growth inhibition of human HCT116 cells at 10 uM after 48 hrs by sulforhodamine B assay; type: functional
NCI-H522 = test: Growth inhibition of human NCI-H522 cells at 10 uM after 48 hrs by sulforhodamine B assay; type: functional; conditions: NCI-H522, 48 h, read-out: GI
NCI-H460 = test: Growth inhibition of human NCI-H460 cells at 10 uM after 48 hrs by sulforhodamine B assay; type: functional
NCI-H322M = test: Growth inhibition of human NCI-H322M cells at 10 uM after 48 hrs by sulforhodamine B assay; type: functional
NCI-H226 = test: Growth inhibition of human NCI-H226 cells at 10 uM after 48 hrs by sulforhodamine B assay; type: functional
HOP-92 = test: Growth inhibition of human HOP92 cells at 10 uM after 48 hrs by sulforhodamine B assay; type: functional
HOP-62 = test: Growth inhibition of human HOP62 cells at 10 uM after 48 hrs by sulforhodamine B assay; type: functional
A549 = test: Growth inhibition of human A549/ATCC cells at 10 uM after 48 hrs by sulforhodamine B assay; type: functional
SR = test: Growth inhibition of human SR cells at 10 uM after 48 hrs by sulforhodamine B assay; type: functional; conditions: read-out: GI
RPMI-8226 = test: Growth inhibition of human RPMI8226 cells at 10 uM after 48 hrs by sulforhodamine B assay; type: functional
MOLT-4 = test: Growth inhibition of human MOLT4 cells at 10 uM after 48 hrs by sulforhodamine B assay; type: functional; conditions: MOLT-4, 48 h, read-out: GI
K562 = test: Growth inhibition of human K562 cells at 10 uM after 48 hrs by sulforhodamine B assay; type: functional
HL-60(TB) = test: Growth inhibition of human HL-60(TB) cells at 10 uM after 48 hrs by sulforhodamine B assay; type: functional; conditions: HL-60, 48 h, read-out: GI
CCRF-CEM = test: Growth inhibition of human CCRF-CEM cells at 10 uM after 48 hrs by sulforhodamine B assay; type: functional; conditions: read-out: GI
Carbonic anhydrase 9 = Carbonic anhydrase 9 (Homo sapiens, UniProt Q16790); test: Inhibition of human carbonic anhydrase 9 after 15 mins by stopped flow CO2 hydration assay
MDA-MB-468 = test: Growth inhibition of human MDA-MB-468 cells at 10 uM after 48 hrs by sulforhodamine B assay; type: functional
T47D = test: Growth inhibition of human T47D cells at 10 uM after 48 hrs by sulforhodamine B assay; type: functional
MDA-MB-231 = test: Growth inhibition of human MDA-MB-231 cells at 10 uM after 48 hrs by sulforhodamine B assay; type: functional
DU-145 = test: Growth inhibition of human DU145 cells at 10 uM after 48 hrs by sulforhodamine B assay; type: functional
PC-3 = test: Growth inhibition of human PC3 cells at 10 uM after 48 hrs by sulforhodamine B assay; type: functional
UO-31 = test: Growth inhibition of human UO31 cells at 10 uM after 48 hrs by sulforhodamine B assay; type: functional; conditions: UO-31, 48 h, read-out: GI
TK-10 = test: Growth inhibition of human TK10 cells at 10 uM after 48 hrs by sulforhodamine B assay; type: functional
SN12C = test: Growth inhibition of human SN12C cells at 10 uM after 48 hrs by sulforhodamine B assay; type: functional
ACHN = test: Growth inhibition of human ACHN cells at 10 uM after 48 hrs by sulforhodamine B assay; type: functional
A498 = test: Growth inhibition of human A498 cells at 10 uM after 48 hrs by sulforhodamine B assay; type: functional
786-0 = test: Growth inhibition of human 786-0 cells at 10 uM after 48 hrs by sulforhodamine B assay; type: functional
SK-OV-3 = test: Growth inhibition of human SKOV3 cells at 10 uM after 48 hrs by sulforhodamine B assay; type: functional
NCI/ADR-RES = test: Growth inhibition of human NCI-ADR-RES cells at 10 uM after 48 hrs by sulforhodamine B assay; type: functional
OVCAR-4 = test: Growth inhibition of human OVCAR4 cells at 10 uM after 48 hrs by sulforhodamine B assay; type: functional
OVCAR-3 = test: Growth inhibition of human OVCAR3 cells at 10 uM after 48 hrs by sulforhodamine B assay; type: functional
IGROV-1 = test: Growth inhibition of human IGROV1 cells at 10 uM after 48 hrs by sulforhodamine B assay; type: functional
UACC-257 = test: Growth inhibition of human UACC257 cells at 10 uM after 48 hrs by sulforhodamine B assay; type: functional
SK-MEL-5 = test: Growth inhibition of human SK-MEL-5 cells at 10 uM after 48 hrs by sulforhodamine B assay; type: functional
SK-MEL-28 = test: Growth inhibition of human SK-MEL-28 cells at 10 uM after 48 hrs by sulforhodamine B assay; type: functional, cell-based
MDA-MB-435 = test: Growth inhibition of human MDA-MB-435 cells at 10 uM after 48 hrs by sulforhodamine B assay; type: functional
M14 = test: Growth inhibition of human M14 cells at 10 uM after 48 hrs by sulforhodamine B assay; type: functional

NS(=O)(=O)c1cnccc1N1CCC(Cc2ccccc2)CC1
18%: inhibition of growth at 10 µM (SR)
9%: inhibition of growth at 10 µM (MOLT-4) | inhibition of growth at 10 µM (K562; K562, 48 h, read-out: GI)
8%: inhibition of growth at 10 µM (MDA-MB-468; MDA-MB-468, 48 h, read-out: GI) | inhibition of growth at 10 µM (A498; A498, 48 h, read-out: GI)
4%: inhibition of growth at 10 µM (Malme-3M) | inhibition of growth at 10 µM (SF-539; SF-539, 48 h, read-out: GI) | inhibition of growth at 10 µM (SK-MEL-5; SK-MEL-5, 48 h, read-out: GI)
2%: inhibition of growth at 10 µM (SNB-19) | inhibition of growth at 10 µM (KM12; KM12, 48 h, read-out: GI) | inhibition of growth at 10 µM (HT-29; HT-29, 48 h, read-out: GI) | inhibition of growth at 10 µM (HCT-15; HCT-15, 48 h, read-out: GI) | inhibition of growth at 10 µM (PC-3; PC-3, 48 h, read-out: GI) | inhibition of growth at 10 µM (SK-OV-3; SK-OV-3, 48 h, read-out: GI) | inhibition of growth at 10 µM (OVCAR-4; OVCAR-4, 48 h, read-out: GI)
11%: inhibition of growth at 10 µM (RPMI-8226; RPMI-8226, 48 h, read-out: GI)
21%: inhibition of growth at 10 µM (UO-31)
10%: inhibition of growth at 10 µM (HCT-116; HCT-116, 48 h, read-out: GI) | inhibition of growth at 10 µM (T47D; read-out: GI)
3%: inhibition of growth at 10 µM (HL-60(TB)) | inhibition of growth at 10 µM (CCRF-CEM) | inhibition of growth at 10 µM (IGROV-1; IGROV-1, 48 h, read-out: GI)
inactive: growth inhibition (GI) (U-251) | growth inhibition (GI) (SNB-75) | growth inhibition (GI) (SF-295) | growth inhibition (GI) (SW-620) | growth inhibition (GI) (NCI-H460) | growth inhibition (GI) (NCI-H322M) | growth inhibition (GI) (HOP-62) | growth inhibition (GI) (MDA-MB-231) | growth inhibition (GI) (DU-145) | growth inhibition (GI) (TK-10) | growth inhibition (GI) (ACHN) | growth inhibition (GI) (786-0) | growth inhibition (GI) (NCI/ADR-RES) | growth inhibition (GI) (OVCAR-3) | growth inhibition (GI) (UACC-257) | growth inhibition (GI) (SK-MEL-28) | growth inhibition (GI) (MDA-MB-435) | growth inhibition (GI) (M14)
39%: inhibition of growth at 10 µM (HOP-92; HOP-92, 48 h, read-out: GI)
12%: inhibition of growth at 10 µM (NCI-H522) | inhibition of growth at 10 µM (NCI-H226; NCI-H226, 48 h, read-out: GI)
136 nM: Ki (Carbonic anhydrase 9)
1%: inhibition of growth at 10 µM (A549; A549, 48 h, read-out: GI) | inhibition of growth at 10 µM (SN12C; read-out: GI)

NS(=O)(=O)c1cnccc1N1CCN(c2ncccn2)CC1
17%: inhibition of growth at 10 µM (SR)
9%: inhibition of growth at 10 µM (HL-60(TB))
1%: inhibition of growth at 10 µM (SNB-19) | inhibition of growth at 10 µM (786-0; 786-0, 48 h, read-out: GI)
78.3 nM: Ki (Carbonic anhydrase 9)
2%: inhibition of growth at 10 µM (NCI-H522)
15%: inhibition of growth at 10 µM (UO-31)
11%: inhibition of growth at 10 µM (SNB-75; SNB-75, 48 h, read-out: GI)
inactive: growth inhibition (GI) (U-251) | growth inhibition (GI) (SF-539) | growth inhibition (GI) (SF-295) | growth inhibition (GI) (KM12) | growth inhibition (GI) (SW-620) | growth inhibition (GI) (HT-29) | growth inhibition (GI) (HCT-15) | growth inhibition (GI) (HCT-116) | growth inhibition (GI) (NCI-H460) | growth inhibition (GI) (NCI-H322M) | growth inhibition (GI) (NCI-H226) | growth inhibition (GI) (HOP-92) | growth inhibition (GI) (HOP-62) | growth inhibition (GI) (A549) | growth inhibition (GI) (RPMI-8226) | growth inhibition (GI) (K562) | growth inhibition (GI) (MDA-MB-468) | growth inhibition (GI) (T47D) | growth inhibition (GI) (MDA-MB-231) | growth inhibition (GI) (DU-145) | growth inhibition (GI) (PC-3) | growth inhibition (GI) (TK-10) | growth inhibition (GI) (SN12C) | growth inhibition (GI) (ACHN) | growth inhibition (GI) (A498) | growth inhibition (GI) (SK-OV-3) | growth inhibition (GI) (NCI/ADR-RES) | growth inhibition (GI) (OVCAR-4) | growth inhibition (GI) (OVCAR-3) | growth inhibition (GI) (IGROV-1) | growth inhibition (GI) (UACC-257) | growth inhibition (GI) (SK-MEL-5) | growth inhibition (GI) (SK-MEL-28) | growth inhibition (GI) (MDA-MB-435) | growth inhibition (GI) (M14)
6%: inhibition of growth at 10 µM (Malme-3M) | inhibition of growth at 10 µM (MOLT-4)
10%: inhibition of growth at 10 µM (CCRF-CEM)
